Test system: subjects with moderate-to-severe plaque psoriasis
Experiment: PASI response, Example 2 long-term extension to Week 52
Type: in vivo, human
Details: for Change from Baseline in PASI Total Score, LSMean: MMRM model
Source text: Described below is a multicenter, long-term extension (LTE), double-blind, dose-ranging, parallel group interventional study in participants from Example 1 to evaluate the long-term efficacy and safety of the hydrochloride salt of the compound of Formula (I) for the treatment of moderate-to-severe plaque psoriasis. Patients from Example 1 continued to receive the same dose of the compound of Formula (I) for an additional 36-week treatment period with a 4-week safety follow up period after the last administration of the compound of Formula (I). Patients randomized to placebo in Example 1 received the compound of Formula (I) at a dose of 100 mg QD starting at Week 16 of Example 1 (FIG. 21).
The primary efficacy endpoint is the proportion of participants achieving a PASI 75 response at Week 52, defined as at least a […] reduction from baseline PASI of Example 1. For primary analysis, composite strategy (non-responder imputation) was applied to address intercurrent event #1 (Discontinuation of study intervention due to lack of efficacy or due to an AE of worsening of psoriasis) and […] (initiation of a protocol-prohibited medication or therapy that could improve psoriasis); treatment policy strategy (observed data) was applied to intercurrent event #3 (Discontinuation of study intervention due to other reasons). Participants with missing data after application of ICEs are considered as non-responders.
Since there was no control arm (after week 16), in this primary analysis, only the proportion of participants who achieved a PASI75 response and its […] confidence interval at Week 52 were summarized for each intervention group.

[1] = Placebo → 100 mg QD, crossed over at or after Week 16, Week 20
[2] = Placebo → 100 mg QD, crossed over at or after Week 16, Week 24
[3] = Placebo → 100 mg QD, crossed over at or after Week 16, Week 28
[4] = Placebo → 100 mg QD, crossed over at or after Week 16, Week 32
[5] = Placebo → 100 mg QD, crossed over at or after Week 16, Week 40
[6] = Placebo → 100 mg QD, crossed over at or after Week 16, Week 52
[7] = Placebo → 100 mg QD, crossed over at or after Week 16, Week 52, non-responder imputation

## CC(=O)NCCCC[C@@H]1NC(=O)[C@H](Cc2c[nH]c3c(C)cccc23)NC(=O)[C@H]([C@@H](C)O)NC(=O)[C@H](CC(N)=O)NC(=O)[C@@H](NC(C)=O)C(C)(C)SSC(C)(C)[C@@H](C(=O)N[C@@H](Cc2ccc(OCCN)cc2)C(=O)N[C@@H](Cc2ccc3ccccc3c2)C(=O)NC2(C(=O)N[C@@H](CCC(=O)O)C(=O)N[C@@H](CC(N)=O)C(=O)N[C@@H](Cc3cccnc3)C(=O)N(C)CC(N)=O)CCOCC2)NC1=O [IL-23 receptor antagonist peptide, Ac-[Pen]*-N-T-[W(7-Me)]-[Lys(Ac)]-[Pen]*-Phe[4-(2-aminoethoxy)]-[2-Nal]-[THP]-E-N-[3-Pal]-Sarc-NH2 (*[Pen]-[Pen]* formdisulfidebond)]
100 mg QD, Week 52
  Subjects achieving PASI 75: 28 (65.1%)
  Change from Baseline in PASI Total Score, LSMean: −15.5
100 mg QD, Week 52, non-responder imputation
  Subjects achieving ≥75% Improvement at Week 52 (PASI 75 Response): 28 (65.1%)
[1]
  Change from Baseline in PASI Total Score, Mean: −10.44
  Change from Baseline in PASI Total Score, Median: −10.35
  Change from Baseline in PASI Total Score, LSMean: −10.3
[2]
  Change from Baseline in PASI Total Score, Mean: −13.26
  Change from Baseline in PASI Total Score, Median: −14.10
  Change from Baseline in PASI Total Score, LSMean: −13.2
[3]
  Change from Baseline in PASI Total Score, Mean: −13.77
  Change from Baseline in PASI Total Score, Median: −14.10
  Change from Baseline in PASI Total Score, LSMean: −13.7
[4]
  Change from Baseline in PASI Total Score, Mean: −14.14
  Change from Baseline in PASI Total Score, Median: −14.75
  Change from Baseline in PASI Total Score, LSMean: −13.7
[5]
  Change from Baseline in PASI Total Score, Mean: −13.73
  Change from Baseline in PASI Total Score, Median: −14.85
  Change from Baseline in PASI Total Score, LSMean: −13.6
[6]
  Change from Baseline in PASI Total Score, Mean: −14.15
  Change from Baseline in PASI Total Score, Median: −15.30
  Change from Baseline in PASI Total Score, LSMean: −14.0
[7]
  Subjects achieving 100% Improvement at Week 52 (PASI): 12 (34.3%)
  Subjects achieving ≥75% Improvement at Week 52 (PASI 75 Response): 23 (65.7%)
  Subjects achieving ≥90% Improvement at Week 52 (PASI): 20 (57.1%)
Week 1, 50 mg QD, N=43
  PASI ≥75% Improvement, subjects (%): (4.7%)
Week 1, 100 mg BID, N=42
  PASI ≥75% Improvement, subjects (%): (2.4%)
  PASI ≥90% Improvement, subjects (%): (2.4%)
Week 1, 100 mg QD, N=43
  PASI ≥75% Improvement, subjects (%): (2.3%)
Week 2, 50 mg QD, N=43
  PASI ≥75% Improvement, subjects (%): (4.7%)
Week 2, 100 mg BID, N=42
  PASI ≥75% Improvement, subjects (%): (4.8%)
  PASI ≥90% Improvement, subjects (%): (2.4%)
Week 2, 100 mg QD, N=43
  PASI ≥75% Improvement, subjects (%): (2.3%)
Week 4, 25 mg BID, N=41
  PASI ≥75% Improvement, subjects (%): (4.9%)
Week 4, 25 mg QD, N=43
  PASI ≥75% Improvement, subjects (%): (9.3%)
  PASI ≥90% Improvement, subjects (%): (2.3%)
Week 4, 50 mg QD, N=43
  PASI ≥75% Improvement, subjects (%): (16.3%)
Week 4, 100 mg BID, N=42
  PASI ≥75% Improvement, subjects (%): (23.8%)
  PASI ≥90% Improvement, subjects (%): (9.5%)
Week 4, 100 mg QD, N=43
  PASI ≥75% Improvement, subjects (%): (16.3%)
  PASI ≥90% Improvement, subjects (%): (4.7%)
Week 8, 25 mg BID, N=41
  PASI 100% Improvement, subjects (%): (2.4%)
  PASI ≥75% Improvement, subjects (%): (19.5%)
  PASI ≥90% Improvement, subjects (%): (7.3%)
Week 8, 25 mg QD, N=43
  PASI 100% Improvement, subjects (%): (2.3%)
  PASI ≥75% Improvement, subjects (%): (23.3%)
  PASI ≥90% Improvement, subjects (%): (14.0%)
Week 8, 50 mg QD, N=43
  PASI 100% Improvement, subjects (%): (2.3%)
  PASI ≥75% Improvement, subjects (%): (39.5%)
  PASI ≥90% Improvement, subjects (%): (18.6%)
Week 8, 100 mg BID, N=42
  PASI 100% Improvement, subjects (%): (11.9%)
  PASI ≥75% Improvement, subjects (%): (47.6%)
  PASI ≥90% Improvement, subjects (%): (28.6%)
Week 8, 100 mg QD, N=43
  PASI 100% Improvement, subjects (%): (4.7%)
  PASI ≥75% Improvement, subjects (%): (44.2%)
  PASI ≥90% Improvement, subjects (%): (20.9%)
Week 12, 25 mg BID, N=41
  PASI 100% Improvement, subjects (%): (4.9%)
  PASI ≥75% Improvement, subjects (%): (51.2%)
  PASI ≥90% Improvement, subjects (%): (19.5%)
Week 12, 25 mg QD, N=43
  PASI 100% Improvement, subjects (%): (4.7%)
  PASI ≥75% Improvement, subjects (%): (34.9%)
  PASI ≥90% Improvement, subjects (%): (18.6%)
Week 12, 50 mg QD, N=43
  PASI 100% Improvement, subjects (%): (4.7%)
  PASI ≥75% Improvement, subjects (%): (51.2%)
  PASI ≥90% Improvement, subjects (%): (34.9%)
Week 12, 100 mg BID, N=42
  PASI 100% Improvement, subjects (%): (33.3%)
  PASI ≥75% Improvement, subjects (%): (73.8%)
  PASI ≥90% Improvement, subjects (%): (52.4%)
Week 12, 100 mg QD, N=43
  PASI 100% Improvement, subjects (%): (14.0%)
  PASI ≥75% Improvement, subjects (%): (62.8%)
  PASI ≥90% Improvement, subjects (%): (39.5%)
Week 16, 25 mg BID, N=41
  PASI 100% Improvement, subjects (%): (9.8%)
  PASI ≥75% Improvement, subjects (%): (51.2%)
  PASI ≥90% Improvement, subjects (%): (26.8%)
Week 16, 25 mg QD, N=43
  PASI 100% Improvement, subjects (%): (11.6%)
  PASI ≥75% Improvement, subjects (%): (37.2%)
  PASI ≥90% Improvement, subjects (%): (25.6%)
Week 16, 50 mg QD, N=43
  PASI 100% Improvement, subjects (%): (25.6%)
  PASI ≥75% Improvement, subjects (%): (58.1%)
  PASI ≥90% Improvement, subjects (%): (51.2%)
Week 16, 100 mg BID, N=42
  PASI 100% Improvement, subjects (%): (40.5%)
  PASI ≥75% Improvement, subjects (%): (78.6%)
  PASI ≥90% Improvement, subjects (%): (59.5%)
Week 16, 100 mg QD, N=43
  PASI 100% Improvement, subjects (%): (23.3%)
  PASI ≥75% Improvement, subjects (%): (65.1%)
  PASI ≥90% Improvement, subjects (%): (46.5%)
Week 20, 25 mg BID, N=41
  PASI 100% Improvement, subjects (%): (19.5%)
  PASI ≥75% Improvement, subjects (%): (56.1%)
  PASI ≥90% Improvement, subjects (%): (34.1%)
Week 20, 25 mg QD, N=43
  PASI 100% Improvement, subjects (%): (14.0%)
  PASI ≥75% Improvement, subjects (%): (48.8%)
  PASI ≥90% Improvement, subjects (%): (30.2%)
Week 20, 50 mg QD, N=43
  PASI 100% Improvement, subjects (%): (18.6%)
  PASI ≥75% Improvement, subjects (%): (62.8%)
  PASI ≥90% Improvement, subjects (%): (48.8%)
Week 20, 100 mg BID, N=42
  PASI 100% Improvement, subjects (%): (40.5%)
  PASI ≥75% Improvement, subjects (%): (81.0%)

Reference: patent publication US20260232767A1, “INTERLEUKIN-23 RECEPTOR ANTAGONIST PEPTIDES FOR USE IN THE TREATMENT OF PSORIASIS” (Janssen Pharmaceutica NV, priority 2023, published 2026)
